Data reported in PubChem BioAssay (NCI).
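In this assay, cells in 96-well plates receive the compound at five concentrations for 48 hours. Endpoints are linearly interpolated between the surrounding concentrations. Definition used: TGI = concentration required for complete inhibition of growth.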

Tests used:
Assay in all cases: NCI tumour cell line growth inhibition, 48 h
786-0 renal = system: 786-0 renal
NCI-H460 lung = system: NCI-H460 lung
K-562 leukemia = system: K-562 leukemia
MDA-N = system: MDA-N
SNB-75 CNS = system: SNB-75 CNS
LOX IMVI melanoma = system: LOX IMVI melanoma
HS 578T breast = system: HS 578T breast
CAKI-1 renal = system: CAKI-1 renal
SK-MEL-2 melanoma = system: SK-MEL-2 melanoma
HT29 colon = system: HT29 colon
HCT-116 colon = system: HCT-116 colon
SK-MEL-28 melanoma = system: SK-MEL-28 melanoma
DU-145 prostate = system: DU-145 prostate
OVCAR-4 ovarian = system: OVCAR-4 ovarian
MDA-MB-231 breast = system: MDA-MB-231 breast
PC-3 prostate = system: PC-3 prostate
T-47D breast = system: T-47D breast
HOP-92 NSCLC = system: HOP-92 NSCLC
A498 renal = system: A498 renal
MDA-MB-435 = system: MDA-MB-435
EKVX NSCLC = system: EKVX NSCLC
KM12 colon = system: KM12 colon
HOP-62 NSCLC = system: HOP-62 NSCLC
OVCAR-3 ovarian = system: OVCAR-3 ovarian
ACHN renal = system: ACHN renal
NCI-H522 lung = system: NCI-H522 lung
U251 CNS = system: U251 CNS
BT-549 breast = system: BT-549 breast
OVCAR-8 ovarian = system: OVCAR-8 ovarian
MOLT-4 leukemia = system: MOLT-4 leukemia
SN12C renal = system: SN12C renal
SF-539 CNS = system: SF-539 CNS
UO-31 renal = system: UO-31 renal
UACC-257 melanoma = system: UACC-257 melanoma
RPMI-8226 leukemia = system: RPMI-8226 leukemia
A549 NSCLC = system: A549 NSCLC
SW-620 colon = system: SW-620 colon
COLO 205 colon = system: COLO 205 colon
SF-295 CNS = system: SF-295 CNS
HCT-15 colon = system: HCT-15 colon
MCF7 breast = system: MCF7 breast
SK-OV-3 ovarian = system: SK-OV-3 ovarian
SR leukemia = system: SR leukemia
SNB-19 CNS = system: SNB-19 CNS
MALME-3M melanoma = system: MALME-3M melanoma
OVCAR-5 ovarian = system: OVCAR-5 ovarian
RXF 393 renal = system: RXF 393 renal
NCI/ADR-RES ovarian = system: NCI/ADR-RES ovarian
UACC-62 melanoma = system: UACC-62 melanoma
NCI-H23 lung = system: NCI-H23 lung
IGROV1 ovarian = system: IGROV1 ovarian
HL-60(TB) leukemia = system: HL-60(TB) leukemia
SF-268 CNS = system: SF-268 CNS
SK-MEL-5 melanoma = system: SK-MEL-5 melanoma
CCRF-CEM leukemia = system: CCRF-CEM leukemia
M14 melanoma = system: M14 melanoma
TK-10 renal = system: TK-10 renal
NCI-H226 lung = system: NCI-H226 lung
HCC-2998 colon = system: HCC-2998 colon

## CCOP(=O)(OCC)/C(F)=C/c1ccc(F)cc1
786-0 renal
  TGI: > 100 µM
NCI-H460 lung
  TGI: > 100 µM
K-562 leukemia
  TGI: > 100 µM
MDA-N
  TGI: > 100 µM
SNB-75 CNS
  TGI: > 100 µM
LOX IMVI melanoma
  TGI: > 100 µM
HS 578T breast
  TGI: > 100 µM
CAKI-1 renal
  TGI: > 100 µM
SK-MEL-2 melanoma
  TGI: > 100 µM
HT29 colon
  TGI: > 100 µM
HCT-116 colon
  TGI: > 100 µM
SK-MEL-28 melanoma
  TGI: > 100 µM
DU-145 prostate
  TGI: > 100 µM
OVCAR-4 ovarian
  TGI: > 100 µM
MDA-MB-231 breast
  TGI: > 100 µM
PC-3 prostate
  TGI: > 100 µM
T-47D breast
  TGI: > 100 µM
HOP-92 NSCLC
  TGI: > 100 µM
A498 renal
  TGI: > 100 µM
MDA-MB-435
  TGI: > 100 µM
EKVX NSCLC
  TGI: > 100 µM
KM12 colon
  TGI: > 100 µM
HOP-62 NSCLC
  TGI: > 100 µM
OVCAR-3 ovarian
  TGI: > 100 µM
ACHN renal
  TGI: > 100 µM
NCI-H522 lung
  TGI: > 100 µM
U251 CNS
  TGI: > 100 µM
BT-549 breast
  TGI: > 100 µM
OVCAR-8 ovarian
  TGI: > 100 µM
MOLT-4 leukemia
  TGI: > 100 µM
SN12C renal
  TGI: > 100 µM
SF-539 CNS
  TGI: > 100 µM
UO-31 renal
  TGI: > 100 µM
UACC-257 melanoma
  TGI: > 100 µM
RPMI-8226 leukemia
  TGI: > 100 µM
A549 NSCLC
  TGI: > 100 µM
SW-620 colon
  TGI: > 100 µM
COLO 205 colon
  TGI: > 100 µM
SF-295 CNS
  TGI: > 100 µM
HCT-15 colon
  TGI: > 100 µM
MCF7 breast
  TGI: > 100 µM
SK-OV-3 ovarian
  TGI: > 100 µM
SR leukemia
  TGI: > 100 µM
SNB-19 CNS
  TGI: > 100 µM
MALME-3M melanoma
  TGI: > 100 µM
OVCAR-5 ovarian
  TGI: > 100 µM
RXF 393 renal
  TGI: > 100 µM
NCI/ADR-RES ovarian
  TGI: > 100 µM
UACC-62 melanoma
  TGI: > 100 µM
NCI-H23 lung
  TGI: > 100 µM
IGROV1 ovarian
  TGI: > 100 µM
HL-60(TB) leukemia
  TGI: > 100 µM
SF-268 CNS
  TGI: > 100 µM
SK-MEL-5 melanoma
  TGI: > 100 µM
CCRF-CEM leukemia
  TGI: > 100 µM
M14 melanoma
  TGI: > 100 µM
TK-10 renal
  TGI: > 100 µM

## CC(C)CCNC(=O)c1ccc(CNC(=O)/C=C/c2ccc3c(c2)-c2ccccc2C3)cc1
786-0 renal
  TGI: 81.1 µM
NCI-H460 lung
  TGI: > 100 µM
K-562 leukemia
  TGI: > 100 µM
MDA-N
  TGI: > 100 µM
SNB-75 CNS
  TGI: 53.3 µM
LOX IMVI melanoma
  TGI: > 100 µM
HS 578T breast
  TGI: > 100 µM
CAKI-1 renal
  TGI: 78.9 µM
SK-MEL-2 melanoma
  TGI: > 100 µM
HT29 colon
  TGI: > 100 µM
HCT-116 colon
  TGI: > 100 µM
SK-MEL-28 melanoma
  TGI: > 100 µM
DU-145 prostate
  TGI: > 100 µM
OVCAR-4 ovarian
  TGI: 80.1 µM
MDA-MB-231 breast
  TGI: > 100 µM
PC-3 prostate
  TGI: > 100 µM
T-47D breast
  TGI: > 100 µM
HOP-92 NSCLC
  TGI: > 100 µM
A498 renal
  TGI: > 100 µM
MDA-MB-435
  TGI: > 100 µM
EKVX NSCLC
  TGI: > 100 µM
KM12 colon
  TGI: > 100 µM
HOP-62 NSCLC
  TGI: 44.8 µM
OVCAR-3 ovarian
  TGI: > 100 µM
ACHN renal
  TGI: > 100 µM
NCI-H522 lung
  TGI: > 100 µM
U251 CNS
  TGI: 65.2 µM
BT-549 breast
  TGI: > 100 µM
OVCAR-8 ovarian
  TGI: 71.4 µM
NCI-H226 lung
  TGI: > 100 µM
MOLT-4 leukemia
  TGI: > 100 µM
SN12C renal
  TGI: > 100 µM
SF-539 CNS
  TGI: > 100 µM
UO-31 renal
  TGI: > 100 µM
UACC-257 melanoma
  TGI: > 100 µM
RPMI-8226 leukemia
  TGI: > 100 µM
A549 NSCLC
  TGI: > 100 µM
SW-620 colon
  TGI: > 100 µM
COLO 205 colon
  TGI: > 100 µM
SF-295 CNS
  TGI: > 100 µM
HCT-15 colon
  TGI: > 100 µM
MCF7 breast
  TGI: > 100 µM
SK-OV-3 ovarian
  TGI: > 100 µM
SR leukemia
  TGI: > 100 µM
SNB-19 CNS
  TGI: > 100 µM
MALME-3M melanoma
  TGI: 45.8 µM
OVCAR-5 ovarian
  TGI: > 100 µM
RXF 393 renal
  TGI: 82.6 µM
NCI/ADR-RES ovarian
  TGI: > 100 µM
UACC-62 melanoma
  TGI: > 100 µM
NCI-H23 lung
  TGI: > 100 µM
IGROV1 ovarian
  TGI: > 100 µM
SF-268 CNS
  TGI: > 100 µM
SK-MEL-5 melanoma
  TGI: > 100 µM
HCC-2998 colon
  TGI: > 100 µM
CCRF-CEM leukemia
  TGI: > 100 µM
M14 melanoma
  TGI: > 100 µM
TK-10 renal
  TGI: > 100 µM
